# In the supplement of paper PMC4862054:
# How the values were obtained:
# Conditions in all cases: incubation time: 72 h
# MDA-MB-231 [1] = assay: normalised viability (% of control), CellTiter-Blue; higher = more viable cells (about 100 = DMSO control)
# Method in brief: (§1)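 Seeded at 20 µl suspension per well onto compound-loaded 384-well plates, breast cancer cell lines were incubated 72 h. CellTiter-Blue fluorescence at 560/590 nm was then read, with each plate normalised to vehicle (100) and a positive kill control (0). Normalised viability is reported at a single listed concentration of the series.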
# MDA-MB-436 [2] = assay: as above
# Method in brief: as §1
# MFM-223 [3] = assay: as above
# Method in brief: as §1
# BT-474 [4] = assay: drug sensitivity score (DSS), CellTiter-Glo (DSS (AUC-based score)); higher = stronger drug effect (viability inhibition or cytotoxicity); extreme values may be limits of the assay
# Method in brief: (§2)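 A drug sensitivity score was derived from the area under each fitted dose-response curve. Breast cancer cells (20 µl suspension) were seeded onto compound in 384-well plates, using 5 concentrations 10-fold apart over a compound-specific 10,000-fold range, and incubated 72 h. Readouts were CellTox Green fluorescence and then CellTiter-Glo luminescence, with every plate normalised to 0.1 % DMSO and a positive kill control.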
# BT-549 = assay: as above
# Method in brief: as §2
# CAL-120 = assay: as above
# Method in brief: as §2
# CAL-148 [5] = assay: as above
# Method in brief: as §2
# CAL-51 = assay: as above
# Method in brief: as §2
# CAL-85-1 = assay: as above
# Method in brief: as §2
# DU-4475 = assay: as above
# Method in brief: as §2
# HCC1143 = assay: as above
# Method in brief: as §2
# HCC1599 [6] = assay: as above
# Method in brief: as §2
# HCC1937 = assay: as above
# Method in brief: as §2
# HDQ-P1 = assay: as above
# Method in brief: as §2
# Hs578T = assay: as above
# Method in brief: as §2
# MCF-10A = assay: as above
# Method in brief: as §2
# MDA-MB-231 [7] = assay: as above
# Method in brief: as §2
# MDA-MB-436 [8] = assay: as above
# Method in brief: as §2
# MDA-MB-453 = assay: as above
# Method in brief: as §2
# MDA-MB-468 = assay: as above
# Method in brief: as §2
# MFM-223 [9] = assay: as above
# Method in brief: as §2
# SK-BR-3 = assay: as above
# Method in brief: as §2
# BT-474 [10] = assay: drug sensitivity score (DSS), CellTox Green (DSS (AUC-based score)); higher = stronger drug effect (viability inhibition or cytotoxicity); extreme values may be limits of the assay
# Method in brief: as §2
# CAL-148 [11] = assay: as above
# Method in brief: as §2
# HCC1599 [12] = assay: as above
# Method in brief: as §2
Structure (SMILES),normalised viability (MDA-MB-231 [1]; 10 nM) [%],normalised viability (MDA-MB-231 [1]; 1000 nM) [%],normalised viability (MDA-MB-231 [1]; 10000 nM) [%],normalised viability (MDA-MB-436 [2]; 10 nM) [%],normalised viability (MDA-MB-436 [2]; 1000 nM) [%],normalised viability (MDA-MB-436 [2]; 10000 nM) [%],normalised viability (MFM-223 [3]; 10 nM) [%],normalised viability (MFM-223 [3]; 1000 nM) [%],normalised viability (MFM-223 [3]; 10000 nM) [%],drug sensitivity score (BT-474 [4]),drug sensitivity score (BT-549),drug sensitivity score (CAL-120),drug sensitivity score (CAL-148 [5]),drug sensitivity score (CAL-51),drug sensitivity score (CAL-85-1),drug sensitivity score (DU-4475),drug sensitivity score (HCC1143),drug sensitivity score (HCC1599 [6]),drug sensitivity score (HCC1937),drug sensitivity score (HDQ-P1),drug sensitivity score (Hs578T),drug sensitivity score (MCF-10A),drug sensitivity score (MDA-MB-231 [7]),drug sensitivity score (MDA-MB-436 [8]),drug sensitivity score (MDA-MB-453),drug sensitivity score (MDA-MB-468),drug sensitivity score (MFM-223 [9]),drug sensitivity score (SK-BR-3),drug sensitivity score (BT-474 [10]),drug sensitivity score (CAL-148 [11]),drug sensitivity score (HCC1599 [12]),normalised viability (MDA-MB-231 [1]; 1 nM) [%],normalised viability (MDA-MB-231 [1]; 100 nM) [%],normalised viability (MDA-MB-436 [2]; 1 nM) [%],normalised viability (MDA-MB-436 [2]; 100 nM) [%],normalised viability (MFM-223 [3]; 1 nM) [%],normalised viability (MFM-223 [3]; 100 nM) [%]
CN(N=O)C(=O)N[C@@H](C=O)[C@@H](O)[C@H](O)[C@H](O)CO [Streptozocin],101,138,110,110,88.1,90.6,93.1,93,86.8,0,0,0,0,0,0,0,0,0,0,0,0,0,0,0,0,0,0,0,0,0,0,–,–,–,–,–,–
C[C@]12CC[C@@H]3c4ccc(O)cc4C[C@@H](CCCCCCCCC[S+]([O-])CCCC(F)(F)C(F)(F)F)[C@H]3[C@@H]1CC[C@@H]2O (stereo not given in full) [Fulvestrant],105,99.7,90.2,94.4,97.5,90.6,67.2,77.6,45.2,0,0,0,0,0,0,0,0,0,0,0,0,0,0,0,0,0,0,0,0,0,0,–,–,–,–,–,–
CC1(C)NC(=O)N(c2ccc([N+](=O)[O-])c(C(F)(F)F)c2)C1=O [Nilutamide],102,92.2,109,113,110,102,108,98.4,85.8,0,0,0,0,2.72,0,0,0,0,0,0,0,0,0,0,0,0,0,0,0,0,0,–,–,–,–,–,–
Cn1c(Nc2ccc(C(F)(F)F)cc2)nc2cc(Oc3ccnc(-c4ncc(C(F)(F)F)[nH]4)c3)ccc21 [RAF265],–,53.8,–,–,83.6,–,–,43.8,–,0.538,1.66,3.6,0,0,1.63,1.18,0,0,1.88,5.82,2.49,0,0,2.94,0,4.79,2.07,0,0,0,0,110,86.1,120,79.6,94.9,74.7
O=C1CCC(N2C(=O)c3ccccc3C2=O)C(=O)N1 (stereo not given) [Thalidomide],97.2,109,124,106,87,96.8,103,96.6,91.4,0,0,0,0,0,0,0,0,0,0,0,0,0,0,0,0,0,0,0,0,1.58,0,–,–,–,–,–,–
Oc1nc(-c2ccc(C(F)(F)F)cc2)nc2c1CSCC2 [XAV-939],89.5,87.6,71.4,122,116,113,110,100,86.9,3.54,0,0,0,8.6,0,0,0,0,0,0,0,0,2.7,0,0.956,0.9,0,0,0,0,0,–,–,–,–,–,–
CCC1=C[C@@H]2CN(C1)Cc1c([nH]c3ccccc13)[C@@](C(=O)OC)(c1cc3c(cc1OC)N(C)[C@H]1[C@@](O)(C(=O)OC)[C@H](OC(C)=O)[C@]4(CC)C=CCN5CC[C@]31[C@@H]54)C2 [Vinorelbine],109,16.7,12.7,109,41.4,34.6,95.5,44,29.1,12.3,20.7,13.2,17.1,17.1,19.8,6.47,15.6,18.8,8.42,7.16,19.8,10.2,13.7,21.9,15.6,24.8,16,37.5,10,9.47,2.9,–,–,–,–,–,–
CN[C@@H]1C[C@H]2O[C@@](C)([C@@H]1OC)n1c3ccccc3c3c4c(c5c6ccccc6n2c5c31)C(=O)N[C@H]4O [UCN-01],93.7,17.2,0.84,110,47.8,12.8,103,42.1,13.5,26,21.6,24.9,8.79,23.9,22.6,19.9,19.7,27.9,18.8,18.8,27.5,27.8,28.1,20.9,17.3,23.7,16.6,24,7.59,3.4,0,–,–,–,–,–,–
COc1cc2nccc(Oc3ccc(NC(=O)C4(C(=O)Nc5ccc(F)cc5)CC4)cc3)c2cc1OC [Cabozantinib],–,87.7,–,–,97.3,–,–,53.7,–,1.14,0,0,0,0,0,0,0,0,0,0,0,0,0,0,0,0,0,0,0,0,0,86.4,94.1,110,102,88.5,84
CNCc1ccc(-c2[nH]c3cc(F)cc4c3c2CCNC4=O)cc1 [Rucaparib],99.2,84.3,75.4,103,62.6,98.2,95.4,99.2,61.5,1.39,0.12,0,1.62,0,0,0,0,0,0,0,0,0,0,1.14,0,2.43,0,0,0,0,0,–,–,–,–,–,–
